Assay results taken from the SangsterLogP compilation.

Compound | logP
COC(=O)[C@H]1[C@@H](OC(=O)c2ccccc2)C[C@@H]2CC[C@H]1N2C | 2.3
O=C(O)COc1cccc(C(F)(F)F)c1 | 2.36
Oc1cccc(C(F)(F)F)c1 | 2.95
COc1ccccc1C(=O)O | 1.59
CI | 1.51
Oc1c(Cl)cc(Cl)c(Cl)c1Cl | 4.45
Oc1c(F)c(F)c(F)c(F)c1F | 3.23
Nc1nc2c(ncn2[C@@H]2O[C@H](CO)[C@@H](O)[C@H]2O)c(=O)[nH]1 | -1.9
Oc1cccc(Br)c1 | 2.63
CC[C@@H]1C(=O)OC[C@@H]1Cc1cncn1C | 0.12
O=[N+]([O-])c1cc(Br)c(O)c(Br)c1 | 3.57
Nc1ccccc1O | 0.62
O=NN(CCCl)C(=O)NC1CCCCC1 | 2.83
COc1cccc([N+](=O)[O-])c1 | 2.16
O=C(O)c1ccc(Oc2ccccc2)cc1 | 3.91
NC(CCCc1ccccc1)C(=O)O (configuration not stated) | -0.36
CCCCNC(=O)NS(=O)(=O)c1ccc(N)cc1 | 1.01
Cc1cccc2c([N+](=O)[O-])cc[n+]([O-])c12 | 1.59
NS(=O)(=O)c1ccc([N+](=O)[O-])cc1 | 0.64
N#Cc1cccc([N+](=O)[O-])c1 | 1.17
O=C(O)CCCCn1nnc2ccccc21 | 0.48
COc1cc(CCN)cc(OC)c1Br | 2.03
ClC=C(Cl)Cl | 2.42
CCCCOc1ccc(CC(=O)NO)cc1 | 2.08
O=[N+]([O-])/C=C/c1cc([N+](=O)[O-])ccc1Cl | 2.23
c1ccc2cc3ccccc3cc2c1 | 4.45

Compound | logP
CCCC(C)C1(CC)C(=O)NC(=S)NC1=O (configuration not stated) | 2.85
CCOC(=O)C(C#N)=NNc1cc(Cl)c(Cl)cc1Cl | 5.21
CC(C)[N+](=O)[O-] | 0.93
COc1cccc(/C=C/[N+](=O)[O-])c1 | 2.37
O=C1CN(/N=C/c2ccc([N+](=O)[O-])o2)C(=O)N1 | -0.47
CCOC(=O)c1cccnc1 | 1.32
CCOc1ccc(OC(=O)NC)cc1 | 1.63
COc1ccc(OC)c(CC(C)N)c1 (configuration not stated) | 1.72
NC(=O)c1ccc(Br)cc1 | 1.76
Cc1ccc(Cl)cc1 | 3.33
CC(C)NCC(O)c1ccc([N+](=O)[O-])cc1 (configuration not stated) | 1.28
CCc1ccc(S(N)(=O)=O)cc1 | 1.31
Cc1ccc(C(C)C)cc1 | 4.1
CCC1(c2ccccc2)C(=O)NC(=O)NC1=O | 1.47
O=C1CCCC(=O)N1 | 1.9
CC(=O)C(C#N)=NNc1cccc(Cl)c1 | 3.9
Clc1cccc(Cl)c1 | 3.53
CC=Cc1ccccc1 | 3.35
NC(=O)C(c1ccccc1)c1ccccn1 (configuration not stated) | 0.83
CC(N)C(=O)O (racemic) | -2.96
Cn1c(CO)cnc1[N+](=O)[O-] | -0.03
O=C(O)COc1ccc(Cl)cc1 | 2.25
CCCN(CCC)S(=O)(=O)c1ccc(C(=O)O)cc1 | 3.21
CBr | 1.19
N#C/C(=C\c1ccccc1)C(N)=O | 1.56
CCCn1nnc2ccccc21 | 2.13

Compound | logP
C=CBr | 1.57
CC=CC | 2.33
O=C(O)COc1ccccc1[N+](=O)[O-] | 1.13
O=c1[nH]c2ccccc2n1CCCN1CCC(n2c(=O)[nH]c3cc(Cl)ccc32)CC1 | 3.9
CNC(=O)Oc1cccc(N(C)C)c1 | 1.43
CCBr | 1.61
Nc1ccn(C2C=CC(CO)O2)c(=O)n1 (configuration not stated) | -1.55
Nc1ccc2ccccc2c1 | 2.28
O=c1cccccc1O | 0.53
Brc1ccccc1Br | 3.64
Nc1ccncc1 | 0.26
Cc1cccc(O)c1 | 1.96
CN1C(=O)C(=O)c2ccccc21 | 0.58
NS(=O)(=O)c1ccc(Br)cc1 | 1.36
Clc1cccc2cccnc12 | 2.44
O=C(O)c1ccccn1 | 0.72
Cc1cccc(C)n1 | 1.68
CCOC1(c2ccccc2)OCCN(C)C1C (configuration not stated) | 2.27
Cc1cc(N)c(C)c(O)c1C(=O)O | 3.38
Cc1ccc(OCC(=O)O)cc1 | 1.86
CCCN(CCC)CCC | 2.79
Nc1ccc(C(F)(F)F)cc1 | 1.95
O=S(=O)(c1ccccc1)c1ccccc1 | 2.4
CNC(C)Cc1ccccc1 (configuration not stated) | 2.07
CC(Oc1ccccc1)C(=O)NC1C(=O)N2C1SC(C)(C)C2C(=O)O (configuration not stated) | 2.2
Nc1ncnc2c1ncn2[C@H]1C[C@H](F)[C@@H](CO)O1 | 0.08

Compound | logP
Oc1c(Br)cc(Br)c(O)c1Br | 4.37
Cc1ccc(C)c2c(C)cccc12 | 4.9
Cc1cc(O)c(C(C)(C)C)cc1CC(N)=O | 2.67
Cc1cccc2c(C)cccc12 | 4.38
CN(C)N=O | -0.57
NC(=O)CCCNC(=C1C=C(F)C=CC1=O)c1ccc(Cl)cc1 | 3.06
BrCBr | 1.7
NCCc1ccccc1 | 1.41
N[C@@H](Cc1ccccc1)C(=O)O | -1.38
COc1ccc(O)cc1 | 1.58
C=CCc1ccccc1OCC(O)CNC(C)C (configuration not stated) | 3.1
CC(C)(C)COC(N)=O | 0.94
O=C1OC(=O)c2ccccc21 | 1.6
Cc1ccccc1N(C)C | 2.85
O=C(O)c1cccc([N+](=O)[O-])c1 | 1.83
O=[N+]([O-])/C=C/c1cccc(O)c1 | 2.07
Cc1ccccc1S(N)(=O)=O | 0.84
Cc1cccc(N)c1 | 1.4
c1ccc2c(c1)Cc1ccccc1-2 | 4.18
O=C(O)c1ccc([N+](=O)[O-])cc1 | 1.89
O=C(O)Cc1cccc(I)c1 | 2.62
c1ccc(-c2cccc(-c3ccccc3)n2)cc1 | 4.82
O/N=C/c1ccccc1 | 1.75
NC(=O)Cc1cccnc1 | -0.71
